≈ marks a conversion by molar mass, not a printed value.
Legend:
E. coli AG100A = assay: Broth microdilution MIC in CAMHB; format: cell-based; conditions: Escherichia coli, read-out: Minimum Inhibitory Concentration, E. coli AG100A
Procedure, shortened: (§1)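 Hyper-permeable or efflux-deficient strains serve to probe outer-membrane penetration. Growth inhibition is scored visually after 16-20 h at 37° C in CAMHB, starting from 2-8×10^5 CFU/mL.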

P. aeruginosa ATCC 27853 = assay: Broth microdilution MIC in CAMHB; format: cell-based; conditions: Pseudomonas aeruginosa, ATCC27853; MHB; read-out: Minimum Inhibitory Concentration, P. aeruginosa ATCC 27853
Procedure, shortened: as §1

[1] = system: K. pneumoniae 848844 producing SHV-11 and KPC-2; assay: Broth microdilution MIC in CAMHB; format: cell-based; conditions: Klebsiella pneumoniae, read-out: Minimum Inhibitory Concentration, K. pneumoniae 848844
Procedure, shortened: as §1

E. coli AG100 = assay: Broth microdilution MIC in CAMHB; format: cell-based; conditions: Escherichia coli; E. coli AG100 (wild-type parent); MHB; read-out: Minimum Inhibitory Concentration, E. coli AG100
Procedure, shortened: as §1

A. baumannii ATCC 19606 = assay: Broth microdilution MIC in CAMHB; format: cell-based; conditions: Acinetobacter baumannii, ATCC19606; MHB; read-out: Minimum Inhibitory Concentration, A. baumannii ATCC 19606
Procedure, shortened: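 CLSI broth microdilution in CAMHB: 2-fold compound dilutions inoculated at 2-8×10^5 CFU/mL from 3-5 h log-phase cultures. Incubated at 37 °C for 16-20 h (Enterobacteriaceae, Pseudomonas); MIC read visually as lowest concentration without growth. Strains include hyper-permeable and efflux-deficient mutants.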

[2] = system: P. aeruginosa (ΔmexAB-oprM); assay: Broth microdilution MIC in CAMHB; format: cell-based; conditions: Pseudomonas aeruginosa, read-out: Minimum Inhibitory Concentration, P. aeruginosa ΔmexAB-OprM
Procedure, shortened: as §1

E. coli 901C = assay: Broth microdilution MIC in CAMHB; format: cell-based; conditions: Escherichia coli; E. coli 901C (hyper-permeable); MHB; read-out: Minimum Inhibitory Concentration, E. coli 901C
Procedure, shortened: as §1

[3] = system: K. pneumoniae UMM producing SHV-5 and KPC-2; assay: Broth microdilution MIC in CAMHB; format: cell-based; conditions: Klebsiella pneumoniae, read-out: Minimum Inhibitory Concentration, K. pneumoniae UMM
Procedure, shortened: as §1

P. aeruginosa PBP3 = target: T1, P. aeruginosa PBP3 (Pseudomonas aeruginosa, UniProt G3XD46); assay: Bocillin-FL fluorescence polarization competition binding assay, P. aeruginosa PBP3; conditions: fluorescence polarization competition binding assay using Bocillin-FL
T1 construct: made in house
T1 sequence (G3XD46 whole entry): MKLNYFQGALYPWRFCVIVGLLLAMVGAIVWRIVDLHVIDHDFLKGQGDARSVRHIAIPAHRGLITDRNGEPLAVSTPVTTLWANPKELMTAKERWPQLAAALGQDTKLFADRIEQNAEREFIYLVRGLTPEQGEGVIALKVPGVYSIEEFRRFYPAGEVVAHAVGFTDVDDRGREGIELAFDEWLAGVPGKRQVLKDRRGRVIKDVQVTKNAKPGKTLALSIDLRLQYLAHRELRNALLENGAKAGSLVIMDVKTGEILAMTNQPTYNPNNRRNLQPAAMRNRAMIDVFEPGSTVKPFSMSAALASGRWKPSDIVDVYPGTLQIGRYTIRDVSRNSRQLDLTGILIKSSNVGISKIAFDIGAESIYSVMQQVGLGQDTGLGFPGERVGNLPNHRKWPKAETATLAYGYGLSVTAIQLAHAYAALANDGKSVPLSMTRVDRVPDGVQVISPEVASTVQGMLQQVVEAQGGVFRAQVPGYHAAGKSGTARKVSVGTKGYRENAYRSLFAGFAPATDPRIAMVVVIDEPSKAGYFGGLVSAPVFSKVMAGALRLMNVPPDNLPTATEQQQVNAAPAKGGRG
Procedure, shortened: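 Inhibitor competition with Bocillin-FL for P. aeruginosa PBP3 was followed by fluorescence polarization on a Cytation3 (BioTek) reader, using g-factor 0.96, 490 nm excitation and 520 nm emission. The enzyme was at 0.75 μM and the probe at 0.1 μM in Hepes/NaCl/glycerol buffer, 80 μl per well. FP was recorded immediately after probe addition for up to 60 minutes. Potency was expressed as EC50, the concentration that reduces bound probe by 50%.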

Compound | MIC (E. coli AG100A) | MIC (P. aeruginosa ATCC 27853) | MIC [1] | MIC (E. coli AG100) | MIC (A. baumannii ATCC 19606) | MIC [2] | MIC (E. coli 901C) | MIC [3] | P. aeruginosa PBP3 Potency (P. aeruginosa PBP3)
NCCN1CCN(C(=O)N[C@H](C(=O)N[C@H]2Cc3cccc(C(=O)O)c3OB2O)c2ccc(O)cc2Cl)C(=O)C1=O (single isomer, unassigned) [Example 85] | 32 to 64 mg/L (≈ 55.8 to 112 µM) | > 128 mg/L | > 128 mg/L | > 128 mg/L | > 128 mg/L | 32 to 64 mg/L (≈ 55.8 to 112 µM) | 8 to 16 mg/L (≈ 13.9 to 27.9 µM) | > 128 mg/L | C (C represents a potency between 10 and 30 μM)
NCCN1CCN(C(=O)N[C@@H](C(=O)N[C@H]2Cc3cccc(C(=O)O)c3OB2O)c2ccc(O)cc2Cl)C(=O)C1=O (single isomer, unassigned) [Example 86] | 2 to 4 mg/L (≈ 3.49 to 6.97 µM) | > 128 mg/L | 32 to 64 mg/L (≈ 55.8 to 112 µM) | 32 to 64 mg/L (≈ 55.8 to 112 µM) | > 128 mg/L | 8 to 16 mg/L (≈ 13.9 to 27.9 µM) | 2 to 4 mg/L (≈ 3.49 to 6.97 µM) | 32 to 64 mg/L (≈ 55.8 to 112 µM) | D (D represents a potency <10 μM)
NCCN1CCN(C(=O)N[C@H](C(=O)N[C@H]2Cc3cccc(C(=O)O)c3OB2O)c2ccc(O)cc2F)C(=O)C1=O (single isomer, unassigned) [Example 88] | 32 to 64 mg/L (≈ 57.4 to 115 µM) | > 128 mg/L | > 128 mg/L | > 128 mg/L | > 128 mg/L | > 128 mg/L | 8 to 16 mg/L (≈ 14.4 to 28.7 µM) | > 128 mg/L | C (C represents a potency between 10 and 30 μM)
NCCN1CCN(C(=O)N[C@@H](C(=O)N[C@H]2Cc3cccc(C(=O)O)c3OB2O)c2ccc(O)cc2F)C(=O)C1=O (single isomer, unassigned) [Example 89] | 2 to 4 mg/L (≈ 3.59 to 7.18 µM) | > 128 mg/L | 32 to 64 mg/L (≈ 57.4 to 115 µM) | 32 to 64 mg/L (≈ 57.4 to 115 µM) | > 128 mg/L | 8 to 16 mg/L (≈ 14.4 to 28.7 µM) | 2 to 4 mg/L (≈ 3.59 to 7.18 µM) | 32 to 64 mg/L (≈ 57.4 to 115 µM) | D (D represents a potency <10 μM)
CCN1CCN(C(=O)N[C@@H](C(=O)N[C@H]2Cc3cccc(C(=O)O)c3OB2O)c2cc(Cl)c(O)cc2Cl)C(=O)C1=O (single isomer, unassigned) [Example 91] | 2 to 4 mg/L (≈ 3.37 to 6.74 µM) | > 128 mg/L | > 128 mg/L | 8 to 16 mg/L (≈ 13.5 to 27 µM) | > 128 mg/L | 32 to 64 mg/L (≈ 53.9 to 108 µM) | < 0.25 mg/L | 32 to 64 mg/L (≈ 53.9 to 108 µM) | D (D represents a potency <10 μM)
CCN1CCN(C(=O)N[C@H](C(=O)N[C@H]2Cc3cccc(C(=O)O)c3OB2O)c2cc(Cl)c(O)cc2Cl)C(=O)C1=O (single isomer, unassigned) [Example 92] | > 128 mg/L | > 128 mg/L | > 128 mg/L | > 128 mg/L | > 128 mg/L | > 128 mg/L | 2 to 4 mg/L (≈ 3.37 to 6.74 µM) | > 128 mg/L | B (B represents a potency between 30 μM and 500 μM inclusive)
CCN1CCN(C(=O)NC(C(=O)N[C@H]2Cc3ccc(F)c(C(=O)O)c3OB2O)c2ccc(C(=O)O)cc2)C(=O)C1=O (stereo partly drawn) [Example 15, (3R)-3-(2-(4-carboxyphenyl)-2-(4-ethyl-2,3-dioxopiperazine-1-carboxamido)acetamido)-7-fluoro-2-hydroxy-3,4-dihydro-2H-benzo[e][1,2]oxaborinine-8-carboxylic acid] | 32 to 64 mg/L (≈ 56.1 to 112 µM) | 32 to 64 mg/L (≈ 56.1 to 112 µM) | > 128 mg/L | > 128 mg/L | > 128 mg/L | 8 to 16 mg/L (≈ 14 to 28.1 µM) | 0.5 to 1 mg/L (≈ 0.877 to 1.75 µM) | > 128 mg/L | D (D represents a potency <10 μM)
CCN1CCN(C(=O)NC(C(=O)N[C@H]2Cc3cccc(C(=O)O)c3OB2O)c2ccc(O)c(NC(C)=O)c2)C(=O)C1=O (stereo partly drawn) [Example 17, (3R)-3-(2-(3-acetamido-4-hydroxyphenyl)-2-(4-ethyl-2,3-dioxopiperazine-1-carboxamido)acetamido)-2-hydroxy-3,4-dihydro-2H-benzo[e][1,2]oxaborinine-8-carboxylic acid] | 8 to 16 mg/L (≈ 13.8 to 27.5 µM) | > 128 mg/L | > 128 mg/L | > 128 mg/L | > 128 mg/L | 8 to 16 mg/L (≈ 13.8 to 27.5 µM) | 0.5 to 1 mg/L (≈ 0.86 to 1.72 µM) | 32 to 64 mg/L (≈ 55 to 110 µM) | D (D represents a potency <10 μM)
CCN1CCN(C(=O)NC(C(=O)N[C@H]2Cc3ccc(F)c(C(=O)O)c3OB2O)c2nc(N)sc2F)C(=O)C1=O (stereo partly drawn) [Example 18, (3R)-3-(2-(2-amino-5-fluorothiazol-4-yl)-2-(4-ethyl-2,3-dioxopiperazine-1-carboxamido)acetamido)-7-fluoro-2-hydroxy-3,4-dihydro-2H-benzo[e][1,2]oxaborinine-8-carboxylic acid] | 2 to 4 mg/L (≈ 3.53 to 7.06 µM) | > 128 mg/L | 32 to 64 mg/L (≈ 56.5 to 113 µM) | 32 to 64 mg/L (≈ 56.5 to 113 µM) | > 128 mg/L | 8 to 16 mg/L (≈ 14.1 to 28.3 µM) | 0.5 to 1 mg/L (≈ 0.883 to 1.77 µM) | 8 to 16 mg/L (≈ 14.1 to 28.3 µM) | D (D represents a potency <10 μM)
CCN1CCN(C(=O)N[C@H](C(=O)N[C@H]2Cc3cccc(C(=O)O)c3OB2O)c2nc(Cl)c(C(=O)O)cc2F)C(=O)C1=O [Example 19, 6-((S)-2-(((R)-8-carboxy-2-hydroxy-3,4-dihydro-2H-benzo[e][1,2]oxaborinin-3-yl)amino)-1-(4-ethyl-2,3-dioxopiperazine-1-carboxamido)-2-oxoethyl)-2-chloro-5-fluoronicotinic acid] | 32 to 64 mg/L (≈ 52.8 to 106 µM) | > 128 mg/L | > 128 mg/L | > 128 mg/L | > 128 mg/L | 32 to 64 mg/L (≈ 52.8 to 106 µM) | 0.5 to 1 mg/L (≈ 0.825 to 1.65 µM) | > 128 mg/L | D (D represents a potency <10 μM)
CCN1CCN(C(=O)NC(C(=O)N[C@H]2Cc3cccc(C(=O)O)c3OB2O)c2ncc(C(=O)O)cc2F)C(=O)C1=O (stereo partly drawn) [Example 20, 6-(2-(((R)-8-carboxy-2-hydroxy-3,4-dihydro-2H-benzo[e][1,2]oxaborinin-3-yl)amino)-1-(4-ethyl-2,3-dioxopiperazine-1-carboxamido)-2-oxoethyl)-5-fluoronicotinic acid] | 8 to 16 mg/L (≈ 14 to 28 µM) | > 128 mg/L | > 128 mg/L | 32 to 64 mg/L (≈ 56 to 112 µM) | > 128 mg/L | 8 to 16 mg/L (≈ 14 to 28 µM) | < 0.25 mg/L | 32 to 64 mg/L (≈ 56 to 112 µM) | D (D represents a potency <10 μM)
CCN1CCN(C(=O)NC(C(=O)N[C@H]2Cc3cccc(C(=O)O)c3OB2O)c2ccc(O)c(N(S(C)(=O)=O)S(C)(=O)=O)c2)C(=O)C1=O (stereo partly drawn) [Example 21, (3R)-3-(2-(4-ethyl-2,3-dioxopiperazine-1-carboxamido)-2-(4-hydroxy-3-(N-(methylsulfonyl)methylsulfonamido)phenyl)acetamido)-2-hydroxy-3,4-dihydro-2H-benzo[e][1,2]oxaborinine-8-carboxylic acid] | 2 to 4 mg/L (≈ 2.88 to 5.75 µM) | > 128 mg/L | > 128 mg/L | 32 to 64 mg/L (≈ 46 to 92 µM) | > 128 mg/L | 32 to 64 mg/L (≈ 46 to 92 µM) | < 0.25 mg/L | 32 to 64 mg/L (≈ 46 to 92 µM) | D (D represents a potency <10 μM)

From patent US20230114728A1 (Venatorx Pharmaceuticals, Inc., priority 2019, published 2023)
